± gives the expanded uncertainty stated by the source.
Experiment: activity coefficient (dimensionless); of the first substance listed, at infinite dilution; xn = mol fraction of the nth substance listed
Conditions: 338.15 K; 101.33 kPa; Liquid; Chromatography; x1 = 0

SMILES	activity coefficient
CC1CCCCC1 [methylcyclohexane] + CCCCCCCCCCCC[N+](C)(C)CCOc1ccccc1.N#C[N-]C#N	3.73 ± 0.25
CC1CCCCC1 [methylcyclohexane] + CCCCCCCCCCCC[N+](C)(C)CCOc1ccccc1.O=S(=O)([N-]S(=O)(=O)C(F)(F)F)C(F)(F)F	2.43 ± 0.17
CCCCCCCCC [nonane] + CCCCCCCCCCCC[N+](C)(C)CCOc1ccccc1.N#C[N-]C#N	7.83 ± 0.53
CCCCCCCCC [nonane] + CCCCCCCCCCCC[N+](C)(C)CCOc1ccccc1.O=S(=O)([N-]S(=O)(=O)C(F)(F)F)C(F)(F)F	4.96 ± 0.34
C=CCCCCCC [oct-1-ene] + CCCCCCCCCCCC[N+](C)(C)CCOc1ccccc1.N#C[N-]C#N	4.98 ± 0.34
C=CCCCCCC [oct-1-ene] + CCCCCCCCCCCC[N+](C)(C)CCOc1ccccc1.O=S(=O)([N-]S(=O)(=O)C(F)(F)F)C(F)(F)F	3.14 ± 0.21
CCCCCCCC [octane] + CCCCCCCCCCCC[N+](C)(C)CCOc1ccccc1.N#C[N-]C#N	6.8 ± 0.46
CCCCCCCC [octane] + CCCCCCCCCCCC[N+](C)(C)CCOc1ccccc1.O=S(=O)([N-]S(=O)(=O)C(F)(F)F)C(F)(F)F	4.23 ± 0.29
CCCCCO [pentan-1-ol] + CCCCCCCCCCCC[N+](C)(C)CCOc1ccccc1.N#C[N-]C#N	0.491 ± 0.037
CCCCCO [pentan-1-ol] + CCCCCCCCCCCC[N+](C)(C)CCOc1ccccc1.O=S(=O)([N-]S(=O)(=O)C(F)(F)F)C(F)(F)F	1.27 ± 0.08
CCCC(C)=O [pentan-2-one] + CCCCCCCCCCCC[N+](C)(C)CCOc1ccccc1.N#C[N-]C#N	0.936 ± 0.059
CCCC(C)=O [pentan-2-one] + CCCCCCCCCCCC[N+](C)(C)CCOc1ccccc1.O=S(=O)([N-]S(=O)(=O)C(F)(F)F)C(F)(F)F	0.434 ± 0.035
CCC(=O)CC [pentan-3-one] + CCCCCCCCCCCC[N+](C)(C)CCOc1ccccc1.N#C[N-]C#N	0.947 ± 0.06
CCC(=O)CC [pentan-3-one] + CCCCCCCCCCCC[N+](C)(C)CCOc1ccccc1.O=S(=O)([N-]S(=O)(=O)C(F)(F)F)C(F)(F)F	0.437 ± 0.035
CCCO [propan-1-ol] + CCCCCCCCCCCC[N+](C)(C)CCOc1ccccc1.N#C[N-]C#N	0.435 ± 0.035
CCCO [propan-1-ol] + CCCCCCCCCCCC[N+](C)(C)CCOc1ccccc1.O=S(=O)([N-]S(=O)(=O)C(F)(F)F)C(F)(F)F	1.2 ± 0.08

SMILES	activity coefficient
CC(C)O [propan-2-ol] + CCCCCCCCCCCC[N+](C)(C)CCOc1ccccc1.N#C[N-]C#N	0.504 ± 0.038
CC(C)O [propan-2-ol] + CCCCCCCCCCCC[N+](C)(C)CCOc1ccccc1.O=S(=O)([N-]S(=O)(=O)C(F)(F)F)C(F)(F)F	1.18 ± 0.08
CCCc1ccccc1 [propylbenzene] + CCCCCCCCCCCC[N+](C)(C)CCOc1ccccc1.N#C[N-]C#N	1.77 ± 0.12
CCCc1ccccc1 [propylbenzene] + CCCCCCCCCCCC[N+](C)(C)CCOc1ccccc1.O=S(=O)([N-]S(=O)(=O)C(F)(F)F)C(F)(F)F	1.2 ± 0.08
c1ccncc1 [pyridine] + CCCCCCCCCCCC[N+](C)(C)CCOc1ccccc1.N#C[N-]C#N	0.604 ± 0.042
c1ccncc1 [pyridine] + CCCCCCCCCCCC[N+](C)(C)CCOc1ccccc1.O=S(=O)([N-]S(=O)(=O)C(F)(F)F)C(F)(F)F	0.313 ± 0.031
C=Cc1ccccc1 [styrene] + CCCCCCCCCCCC[N+](C)(C)CCOc1ccccc1.N#C[N-]C#N	0.94 ± 0.06
C=Cc1ccccc1 [styrene] + CCCCCCCCCCCC[N+](C)(C)CCOc1ccccc1.O=S(=O)([N-]S(=O)(=O)C(F)(F)F)C(F)(F)F	0.711 ± 0.047
C1CCOC1 [tetrahydrofuran] + CCCCCCCCCCCC[N+](C)(C)CCOc1ccccc1.N#C[N-]C#N	0.726 ± 0.048
C1CCOC1 [tetrahydrofuran] + CCCCCCCCCCCC[N+](C)(C)CCOc1ccccc1.O=S(=O)([N-]S(=O)(=O)C(F)(F)F)C(F)(F)F	0.418 ± 0.035
c1ccsc1 [thiophene] + CCCCCCCCCCCC[N+](C)(C)CCOc1ccccc1.N#C[N-]C#N	0.674 ± 0.046
c1ccsc1 [thiophene] + CCCCCCCCCCCC[N+](C)(C)CCOc1ccccc1.O=S(=O)([N-]S(=O)(=O)C(F)(F)F)C(F)(F)F	0.591 ± 0.042
Cc1ccccc1 [toluene] + CCCCCCCCCCCC[N+](C)(C)CCOc1ccccc1.N#C[N-]C#N	1.1 ± 0.07
Cc1ccccc1 [toluene] + CCCCCCCCCCCC[N+](C)(C)CCOc1ccccc1.O=S(=O)([N-]S(=O)(=O)C(F)(F)F)C(F)(F)F	0.766 ± 0.05
C=COC(C)=O [vinyl acetate] + CCCCCCCCCCCC[N+](C)(C)CCOc1ccccc1.N#C[N-]C#N	1.28 ± 0.08

Same assay, conditions: 348.15 K; 101.33 kPa; Liquid; Chromatography; x1 = 0

SMILES	activity coefficient
CC1CCCCC1 [methylcyclohexane] + CCCCCCCCCCCC[N+](C)(C)CCOc1ccccc1.N#C[N-]C#N	3.78 ± 0.26
CC1CCCCC1 [methylcyclohexane] + CCCCCCCCCCCC[N+](C)(C)CCOc1ccccc1.O=S(=O)([N-]S(=O)(=O)C(F)(F)F)C(F)(F)F	2.47 ± 0.17
CCCCCCCCC [nonane] + CCCCCCCCCCCC[N+](C)(C)CCOc1ccccc1.N#C[N-]C#N	7.95 ± 0.54
CCCCCCCCC [nonane] + CCCCCCCCCCCC[N+](C)(C)CCOc1ccccc1.O=S(=O)([N-]S(=O)(=O)C(F)(F)F)C(F)(F)F	5.03 ± 0.34
C=CCCCCCC [oct-1-ene] + CCCCCCCCCCCC[N+](C)(C)CCOc1ccccc1.N#C[N-]C#N	5.09 ± 0.35
C=CCCCCCC [oct-1-ene] + CCCCCCCCCCCC[N+](C)(C)CCOc1ccccc1.O=S(=O)([N-]S(=O)(=O)C(F)(F)F)C(F)(F)F	3.23 ± 0.22
CCCCCCCC [octane] + CCCCCCCCCCCC[N+](C)(C)CCOc1ccccc1.N#C[N-]C#N	6.87 ± 0.47
CCCCCCCC [octane] + CCCCCCCCCCCC[N+](C)(C)CCOc1ccccc1.O=S(=O)([N-]S(=O)(=O)C(F)(F)F)C(F)(F)F	4.32 ± 0.29
CCCCCO [pentan-1-ol] + CCCCCCCCCCCC[N+](C)(C)CCOc1ccccc1.N#C[N-]C#N	0.505 ± 0.038
CCCCCO [pentan-1-ol] + CCCCCCCCCCCC[N+](C)(C)CCOc1ccccc1.O=S(=O)([N-]S(=O)(=O)C(F)(F)F)C(F)(F)F	1.24 ± 0.08
CCCC(C)=O [pentan-2-one] + CCCCCCCCCCCC[N+](C)(C)CCOc1ccccc1.N#C[N-]C#N	0.97 ± 0.061
CCCC(C)=O [pentan-2-one] + CCCCCCCCCCCC[N+](C)(C)CCOc1ccccc1.O=S(=O)([N-]S(=O)(=O)C(F)(F)F)C(F)(F)F	0.458 ± 0.036
CCC(=O)CC [pentan-3-one] + CCCCCCCCCCCC[N+](C)(C)CCOc1ccccc1.N#C[N-]C#N	0.981 ± 0.062
CCC(=O)CC [pentan-3-one] + CCCCCCCCCCCC[N+](C)(C)CCOc1ccccc1.O=S(=O)([N-]S(=O)(=O)C(F)(F)F)C(F)(F)F	0.462 ± 0.036
CCCO [propan-1-ol] + CCCCCCCCCCCC[N+](C)(C)CCOc1ccccc1.N#C[N-]C#N	0.445 ± 0.036
CCCO [propan-1-ol] + CCCCCCCCCCCC[N+](C)(C)CCOc1ccccc1.O=S(=O)([N-]S(=O)(=O)C(F)(F)F)C(F)(F)F	1.17 ± 0.07
